According to the NIST ThermoML archive (doi:10.1016/j.fluid.2015.01.010):
Numbers after ± are expanded uncertainties.

Assay: activity coefficient (dimensionless); of the first substance listed, at infinite dilution; xn = mol fraction of the nth substance listed
Settings: 101 kPa, Liquid, Chromatography, x1 = 0

activity coefficient (338.15 K)	SMILES	activity coefficient (298.15 K)	activity coefficient (301.15 K)	activity coefficient (303.15 K)	activity coefficient (305.15 K)	activity coefficient (308.15 K)	activity coefficient (310.15 K)	activity coefficient (313.15 K)	activity coefficient (315.15 K)	activity coefficient (318.15 K)	activity coefficient (320.15 K)	activity coefficient (323.15 K)	activity coefficient (325.15 K)	activity coefficient (328.15 K)	activity coefficient (330.15 K)	activity coefficient (333.15 K)	activity coefficient (299.15 K)	activity coefficient (306.15 K)	activity coefficient (311.15 K)
–	C=CC=O [2-propenal] + O	20.9 ± 0.8	21.5 ± 0.8	21.4 ± 0.8	21.7 ± 0.8	22.4 ± 0.8	22.6 ± 0.8	23.1 ± 0.9	23.5 ± 0.9	24 ± 0.9	24.1 ± 0.9	24.1 ± 0.9	24.3 ± 0.9	24.3 ± 0.9	24.5 ± 0.9	24.4 ± 1	–	–	–
–	C/C=C/C=O [(E)-2-butenal] + O	39 ± 1.6	–	–	–	42.8 ± 1.6	–	44.4 ± 1.8	–	46.2 ± 1.9	–	47 ± 2.1	–	47.3 ± 2	–	48 ± 1.9	–	–	–
78 ± 3	CCCCO [butan-1-ol] + O	–	–	52 ± 3	–	57 ± 2	–	58 ± 3	–	64 ± 3	–	69 ± 3	–	72 ± 3	–	80 ± 3	–	–	–
–	c1ccoc1 [furan] + O	415 ± 20	403 ± 19	397 ± 19	394 ± 19	372 ± 19	–	356 ± 20	–	–	–	–	–	–	–	–	412 ± 20	380 ± 19	366 ± 22
–	CCCCC=O [pentanal] + O	220 ± 8	–	260 ± 10	–	276 ± 10	–	302 ± 12	–	324 ± 12	–	339 ± 14	–	350 ± 14	–	–	–	–	–
